Results reported in patent US20040235813A1, “Compounds that inhibit hsp90 and stimulate hsp70 and hsp40, useful in the prevention or treatment of diseases associated with protein aggregation and amyloid formation” (priority 2001, published 2004).

How the values were obtained:
Hsp70 = assay: Immunoblot of Hsp70 expression in GA treated COS-1 cells expressing EGFP-HD72Q; assay type: cell-based; conditions: GA 360 nM, 40 hours
Description: (§1) Equal amounts (10 μg) of protein were loaded. […] Aggregates were detected using the filter retardation assay.
(§2) Control cells were treated with DMSO.
(§3) Protein concentration was determined by the BioRad assay.

Hsp40 = assay: Immunoblot of Hsp40 expression in GA treated COS-1 cells expressing EGFP-HD72Q; assay type: cell-based; conditions: GA 360 nM, 40 hours
Description: as §1, §2, §3

EGFP-HD72Q = assay: Immunoblot of EGFP-HD72Q expression in GA treated COS-1 cells; assay type: cell-based; conditions: GA 18-360 nM, 40 hours
Description: (§4) (A) Expression of EGFP-HD72Q, Hsp40, Hsp70, and Hsp90 in COS-1 cells. […] Equal amounts (10 μg) of protein were loaded. […] Aggregates were detected using the filter retardation assay. Filters were probed with the HD1 antibody and signal intensities quantified using a Fuji-imager (LAS 2000). […] Values shown are the mean of three independent experiments (±S.E).
(§5) A further linker was introduced in order to generate the appropriate reading frame, resulting in pTL1-HA3. Hsp70-pTLHA3 was generated by PCR amplification of the human Hsp70A gene and cloning into pTL1-HA3. Hdj-1-pTL10Flag was generated by ligating the human HDJ-1 gene, derived from pQE9-His-Hsp40 (33), into pTL10SFlag (a kind gift of D. Devys and J.-L. Mandel). pEGFP-HD72Q was generated by PCR amplification of the exon 1 of human HD from patient DNA and cloning into pEGFP-C1 (Clontech). All constructs were verified by sequencing.
Control cells were treated with DMSO. […]
SDS-PAGE and Western blot analysis was performed according to standard procedures. […] Captured aggregates were detected by incubation with HD1 IgG (diluted 1:5000) followed by incubation with alkaline phosphatase conjugated anti-rabbit IgG and the fluorescent substrate AttoPhos. Quantitation of the captured aggregates was performed using a Fuji-imager (LAS 2000) and AIDA 1.0 image analysis software.

[1] = tested on: SDS-insoluble EGFP-HD72Q protein aggregates; assay: Filter retardation assay for SDS-insoluble EGFP-HD72Q protein aggregates in COS-1 cells; assay type: cell-based, monkey; conditions: filtration assay
Description: as §4, §5
Control cells were treated with DMSO. As alternative transfection method, the Lipofectamine Plus Reagent (GibcoBRL Life Technologies) was used according to the manufacturer's instruction.
SDS-PAGE and Western blot analysis was performed according to standard procedures. For the filter retardation assay (27,30) protein samples (1-20 μg) were heated at 98° C. for 3 min in 2% SDS and 50 mM DTT and filtered through a 0.2 μm cellulose acetate membrane (Schleicher & Schuell) using a BRL dot-blot filtration unit. Captured aggregates were detected by incubation with HD1 IgG (diluted 1:5000) followed by incubation with alkaline phosphatase conjugated anti-rabbit IgG and the fluorescent substrate AttoPhos. Quantitation of the captured aggregates was performed using a Fuji-imager (LAS 2000) and AIDA 1.0 image analysis software.
Using this assay SDS-resistant huntingtin protein aggregates can be immunologically detected and quantified.

SMILES: COC1=C2C[C@@H](C)C[C@H](OC)[C@H](O)[C@@H](C)/C=C(\C)[C@H](OC(N)=O)[C@@H](OC)/C=C\C=C(/C)C(=O)NC(=CC1=O)C2=O [GA, Geldanamycin]
- up-regulation of Hsp70 compared to the untreated controls (Hsp70): 3-4 fold
- up-regulation of Hsp40 compared to the untreated controls (Hsp40): 3-4 fold
- effect on EGFP-HD72Q expression (EGFP-HD72Q): no effect
- reduction of the amount of insoluble protein aggregates ([1]; GA 18 nM): approximately 30%
- reduction of the amount of insoluble protein aggregates ([1]; GA 90 nM): ~60%
- reduction of the amount of insoluble protein aggregates ([1]; GA 180 nM): ~70%
- reduction of the amount of insoluble protein aggregates ([1]; GA 360 nM): ~80%
